Several values for one entry are separate records, joined by “and”; a condition that tells them apart may be missing. Equal entries are not always repeated. Structures can show the parent of a compound that is named as a salt. Where two headings read alike, the source gives them in different places.
What was measured:
[1] = target: T1, acetylcholinesterase (AChE, from Electrophorus electricus) (Electrophorus electricus, UniProt O42275); assay: Acetylcholinesterase inhibition, Ellman's method; format: biochemical; details: for % Inhibition of AChE / inhibition at 50 µM: at 50 µM compound
T1 construct: purchased Fluka

[2] = target: T2, butyrylcholinesterase (BChE, from equine serum) (Equus caballus, UniProt P81908); assay: Butyrylcholinesterase inhibition, Ellman's method; format: biochemical; details: for % Inhibition of BChE / inhibition at 50 µM: at 50 µM compound
T2 construct: Butyrylcholinesterase (from equine serum) was bought from Sigma; purchased Sigma; host or cells: equine serum

[3] = system: acetylcholinesterase (AChE); details: Figure 1, cited from earlier work

T2 sequence (P81908 whole entry): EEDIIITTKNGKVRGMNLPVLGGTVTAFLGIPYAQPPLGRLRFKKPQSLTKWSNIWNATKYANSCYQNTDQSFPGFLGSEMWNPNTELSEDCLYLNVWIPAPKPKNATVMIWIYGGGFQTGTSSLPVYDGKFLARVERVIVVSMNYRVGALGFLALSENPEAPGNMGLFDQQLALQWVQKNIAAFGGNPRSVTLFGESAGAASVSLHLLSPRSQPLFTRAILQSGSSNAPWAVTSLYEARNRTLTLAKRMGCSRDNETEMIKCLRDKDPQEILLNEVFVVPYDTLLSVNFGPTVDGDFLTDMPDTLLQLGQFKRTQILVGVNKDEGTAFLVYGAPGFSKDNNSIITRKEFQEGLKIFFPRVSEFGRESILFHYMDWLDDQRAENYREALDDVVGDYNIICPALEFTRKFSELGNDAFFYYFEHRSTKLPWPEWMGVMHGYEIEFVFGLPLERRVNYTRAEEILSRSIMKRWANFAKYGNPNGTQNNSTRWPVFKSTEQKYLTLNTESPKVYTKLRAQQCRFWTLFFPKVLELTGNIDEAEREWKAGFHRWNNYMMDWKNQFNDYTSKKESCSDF
T1 sequence (O42275 24-633): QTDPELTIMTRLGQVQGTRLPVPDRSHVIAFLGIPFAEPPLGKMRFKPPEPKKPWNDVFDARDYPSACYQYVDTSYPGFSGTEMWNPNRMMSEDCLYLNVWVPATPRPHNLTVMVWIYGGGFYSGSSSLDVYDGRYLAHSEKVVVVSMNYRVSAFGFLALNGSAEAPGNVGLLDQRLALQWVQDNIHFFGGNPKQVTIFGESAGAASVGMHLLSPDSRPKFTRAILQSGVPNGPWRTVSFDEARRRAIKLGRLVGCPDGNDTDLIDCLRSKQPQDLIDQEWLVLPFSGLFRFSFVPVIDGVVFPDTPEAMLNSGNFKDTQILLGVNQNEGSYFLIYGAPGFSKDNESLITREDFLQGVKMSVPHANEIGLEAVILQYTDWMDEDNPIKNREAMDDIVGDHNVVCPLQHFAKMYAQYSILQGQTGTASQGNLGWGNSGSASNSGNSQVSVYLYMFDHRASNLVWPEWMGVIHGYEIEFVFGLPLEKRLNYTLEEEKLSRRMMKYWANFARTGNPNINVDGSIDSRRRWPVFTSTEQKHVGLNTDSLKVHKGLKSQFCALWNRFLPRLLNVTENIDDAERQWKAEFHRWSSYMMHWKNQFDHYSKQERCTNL

In the case of “1-(5-Deoxy-3-O-dodecyl-α-D-xylofuranos-5-yl)-3,7-dimethyl-3,7-dihydro-1H-purine-2,6-dione [Compound 18]”, the “% Inhibition of AChE” value [1] is reported as 14.5% and the “% Inhibition of BChE” value [2] is reported as 19.6%.

In the case of `CO[C@H]1O[C@H](Cn2c(=O)c3c(ncn3C)n(C)c2=O)[C@@H](OC(C)=O)[C@H](OC(C)=O)[C@H]1OC(C)=O` [A], the “inhibition of AChE (in words)” value ([3]; theobromine 6′-isonucleoside) is listed as “good inhibitory effect”.

For `CC(=O)O[C@H]1C(NS(C)(=O)=O)O[C@H](Cn2c(=O)c3c(ncn3C)n(C)c2=O)[C@@H]1OCc1ccccc1` (some centres unmarked) [B], the “inhibition of AChE (in words)” value ([3]; N-isonucleosidyl sulfonamide) is given as “micromolar and selective inhibition of AChE”.

Work on `CCCCCCCCCCCCO[C@@H]1[C@H]2OC(C)(C)O[C@H]2O[C@@H]1Cn1c(=O)c2c(ncn2C)n(C)c1=O` [Compound 3, 1-(5-Deoxy-3-O-dodecyl-1,2-O-isopropylidene-α-D-xylofuranos-5-yl)-3,7-dimethyl-3,7-dihydro-1H-purine-2,6-dione] yielded an inhibition at 50 µM [1] of 13.8% and an inhibition at 50 µM [2] of 11.7%.

`CCCCCCCCCCCCO[C@@H]1[C@H]2OC(C)(C)O[C@H]2O[C@@H]1Cn1cnc2c(N)ncnc21` [Compound 4, 9-(5-Deoxy-3-O-dodecyl-1,2-O-isopropylidene-α-D-xylofuranos-5-yl)adenine] showed an inhibition at 50 µM [1] of 16.3% and an inhibition at 50 µM [2] of 11.9%.

Compound `CCCCCCCCCCCCO[C@@H]1[C@H]2OC(C)(C)O[C@H]2O[C@@H]1Cn1cnc2c(Cl)nc(NC(C)=O)nc21` [Compound 5, 2-Acetamido-6-chloro-9-(5-deoxy-3-O-dodecyl-1,2-O-isopropylidene-α-D-xylofuranos-5-yl)purine] has an inhibition at 50 µM [1] of 25.3% and an inhibition at 50 µM [2] of 32.5%.

Compound `CCCCCCCCCCCCO[C@@H]1[C@H]2OC(C)(C)O[C@H]2O[C@@H]1Cn1ccc(=O)[nH]c1=O` [Compound 6, 1-(5-Deoxy-3-O-dodecyl-1,2-O-isopropylidene-α-D-xylofuranos-5-yl)uracil] has an inhibition at 50 µM [1] of 22.5% and an inhibition at 50 µM [2] of 28.5%.

In the case of `CCCCCCCCCCCCO[C@@H]1[C@H]2OC(C)(C)O[C@H]2O[C@@H]1Cn1c(=O)cc[nH]c1=O` [Compound 7, 3-(5-deoxy-3-O-dodecyl-1,2-O-isopropylidene-α-D-xylofuranos-5-yl)uracil], the inhibition at 50 µM [1] is reported as 17.8% and the inhibition at 50 µM [2] is reported as 7.5%.

`CCCCCCCCCCCCO[C@@H]1[C@H]2OC(C)(C)O[C@H]2O[C@@H]1Cn1ccc(=O)n(C[C@H]2O[C@@H]3OC(C)(C)O[C@@H]3[C@H]2OCCCCCCCCCCCC)c1=O` [Compound 8, 1,3-bis-(5-deoxy-3-O-dodecyl-1,2-O-isopropylidene-α-D-xylofuranos-5-yl)uracil] showed an inhibition at 50 µM [1] of 26.1% and an inhibition at 50 µM [2] of 32.8%.

With `CCCCCCCCCCCCO[C@@H]1[C@H]2OC(C)(C)O[C@H]2O[C@@H]1COc1ccnc(OC[C@H]2O[C@@H]3OC(C)(C)O[C@@H]3[C@H]2OCCCCCCCCCCCC)n1` [Compound 9, 2,4-bis-O-(5-deoxy-3-O-dodecyl-1,2-O-isopropylidene-α-D-xylofuranos-5-yl)uracil] the “Ki′ (uncompetitive inhibition), AChE” value [1] was 103.0 µM and 103.0 ± 4.3 µM, the “type of inhibition, AChE” value [1] was “mixed-type” and the inhibition at 50 µM [1] was 40.3%. It also gave a Ki ([1]; read-out: Ki (competitive inhibition), AChE) of 17.5 ± 0.7 µM and an inhibition at 50 µM [2] of 29.8%.

`CCCCCCCCCCCCO[C@H]1[C@@H](Cn2c(=O)c3c(ncn3C)n(C)c2=O)OC(O)[C@@H]1O` (stereo partly drawn) [Compound 10, 1-(5-Deoxy-3-O-dodecyl-α,β-D-xylofuranos-5-yl)-3,7-dimethyl-3,7-dihydro-1H-purine-2,6-dione] gave an inhibition at 50 µM [1] of 2.6% and an inhibition at 50 µM [2] of 22.9%.

In the case of `CCCCCCCCCCCCO[C@H]1[C@@H](Cn2c(=O)c3c(ncn3C)n(C)c2=O)OC(NS(C)(=O)=O)[C@@H]1OC(C)=O` (stereo partly drawn) [Compound 12, N-[2-O-Acetyl-1,5-dideoxy-5-(3,7-dimethyl-3,7-dihydro-2,6-dioxo-1H-purin-1-yl)-3-O-dodecyl-α,β-D-xylofuranos-1-yl]methanesulfonamide], the “inhibitory effect on AChE (in words)” value [1] is reported as “devoid of any inhibitory effects”, the inhibition at 50 µM [1] is reported as 1% and the “inhibitory effect on BChE (in words)” value [2] is reported as “devoid of any inhibitory effects”. The inhibition at 50 µM [2] was 4.6%.

With `CCCCCCCCCCCCO[C@@H]1[C@@H](OC(C)=O)[C@@H](N=[N+]=[N-])O[C@@H]1Cn1c(=O)c2c(ncn2C)n(C)c1=O` [Compound 13-α, 1-(2-O-Acetyl-1-azido-1,5-dideoxy-3-O-dodecyl-α-D-xylofuranos-5-yl)-3,7-dimethyl-3,7-dihydro-1H-purine-2,6-dione] the “inhibitory effect on AChE (in words)” value [1] was “devoid of any inhibitory effects”, the inhibition at 50 µM [1] was 18.9% and the “inhibitory effect on BChE (in words)” value [2] was “devoid of any inhibitory effects”. For the same compound, the inhibition at 50 µM [2] was 35%.

In the case of `COc1ccc2c3c1O[C@H]1C[C@@H](O)C=C[C@@]31CCN(C)C2` [Galantamine hydrobromide, galantamine hydrobromide, reference compound], the “type of inhibition, BChE” value [2] is reported as “competitive” and the inhibition at 50 µM [2] is reported as 86.3%.

For “N-[2,4-Di-O-acetyl-1,6-dideoxy-6-(3,7-dimethyl-3,7-dihydro-2,6-dioxo-1H-purin-1-yl)-3-O-dodecyl-α,β-D-glucopyranos-1-yl]methanesulfonamide [Compound 22]”, the “% Inhibition of AChE” value [1] was 28.3% and the “% Inhibition of BChE” value ([2]; 50 µM) was 53% and 52.6%.

Reference: article PMC6790002, “Synthesis and Biological Evaluation of Structurally Varied 5′-/6′-Isonucleosides and Theobromine-Containing N-Isonucleosidyl Derivatives” (Pharmaceuticals, 2019)
